The values that follow come from patent US7732633B2, “Arylsulfinate salts in photoinitiator systems for polymerization reactions” (3M Innovative Properties Company, priority 2003, dated 2010).

For data set [1] the following is noted: in N,N-dimethylformamide, 0.1 molar TBA PF6, versus Ag/0.01M AgNO3 reference electrode, peak current, first scan, 100 mV/sec.
Description: The oxidation potential can be determined using cyclic voltammetry. As described herein, the oxidation potential is measured by dissolving the compound of interest in a non-aqueous solvent (i.e., N,N-dimethylformamide) containing a supporting electrolyte (i.e., 0.1 moles/liter tetrabutylammonium hexafluorophosphate). The resulting solution is purged with an inert gas such as argon. A three-electrode configuration is used that includes a working electrode (i.e., a glassy carbon electrode), a reference electrode (i.e., a silver wire in a 0.01 moles/liter of silver nitrate dissolved in acetonitrile), and a counter electrode (i.e., a platinum wire). The oxidation or reduction potential is the voltage corresponding to the maximum current for the oxidation reaction.
The scan rates were 100 mV/sec.
The electrochemical measurements were made using a three-electrode configuration: a reference electrode, a working electrode, and a counter electrode. The reference electrode was a fritted electrode (obtained from Sargent Welch, Buffalo Grove, Ill.) that was filled with 0.01M AgNO3 in acetonitrile and fitted with a silver wire 1 mm in diameter by approximately 19 cm in length. The counter electrode was a platinum wire 1.0 mm in diameter and approximately 16 cm long (overall length) formed into a coil having a coil diameter of approximately 10 mm and a coil length of about 7.5 cm. The working electrode was a glassy carbon electrode, approximately 3.5 mm in diameter (obtained from BAS, Inc., West Lafayette, Ind.). The glassy carbon electrode was polished using first a 3.0 micron aluminum oxide powder/deionized water slurry, then a 0.3 micron alpha alumina powder/deionized water slurry. The polishing powders were obtained from Buehler LTD, Evanston, Ill.
The cell was a 50 mL four neck round bottom flask. Each electrode was sealed in the flask using the appropriately sized rubber septum. The fourth inlet was used to introduce an argon purge to remove oxygen and keep atmospheric moisture out of the cell.
The supporting electrolyte was tetrabutylammonium hexafluorophosphate (TBA PF6) (obtained from Southwestern Analytical Chemicals, Inc., Austin, Tex.). The TBA PF6 was dried overnight in a vacuum oven at 80-90° C. before each experiment. The solvent was N,N-dimethylformamide (DMF), and it was used as received without further purification. The solvent was transferred to the electrochemical cell via syringe under an argon atmosphere to minimize atmospheric moisture uptake.
Electrochemical measurements were made by first preparing a 0.1 molar solution of TBA PF6 in DMF. […] The potential was determined at the peak current for the oxidation or reduction reaction on the first scan.
The conditions of data set [2]: time to oxidize 50 weight percent of the compound at room temperature; solutions in acetonitrile-d3; pseudo-first order kinetics. The procedure:
The oxidative stability of the exemplary substituted arylsulfinates was determined by proton nuclear magnetic resonance spectroscopy. Spectra of solutions of the compounds in acetonitrile-d3 were obtained at regular intervals. The resonances of the alkyl groups in the cations were used as an internal standard to assess the oxidation of the anion.

Where only a bound is given, the exact number is not on record here.

As to “tetrabutylammonium 4-chlorobenzenesulfinate [Example 1]”, the Eox in data set [1] amounted to 0.09 V. For “tetrabutylammonium 4-cyanobenzenesulfinate [Example 4]”, the “t1/2” value in data set [2] was greater than 300 days. Also, the Eox in data set [1] amounted to 0.15 V. In data set [1], “tetrabutylammonium 4-ethoxycarbonylbenzenesulfinate [Example 2]” gave an Eox of 0.11 V. Substance “tetrabutylammonium 4-trifluoromethylbenzenesulfinate [Example 3]” displayed an Eox in data set [1] of 0.18 V.
